Data taken from patent publication US7786147B2, “Analogs of choline for neuroprotection and cognitive enhancement in neurodegenerative disorders” (Medical College of Georgia Research Institute., priority 2001, dated 2010).

Assays:
[1] = test system: differentiated PC-12 cells; test: MTT cell viability (neuroprotection) assay after neurotrophic factor withdrawal; assay type: cell-based; set-up: neuroprotective action after pretreatment with mecamylamine: dose or concentration left out as unconfirmed; settings: for potency in neuroprotection relative to choline and its ethyl analogs (in words): effects at lowest dose 0.1 mM not much reduced from 10 mM
Description: Cell Culture: PC12 cells were maintained in 150-cm^2 tissue-culture flasks in Dulbecco's Modified Eagles medium containing 7% horse serum, 7% fetal calf serum, 1% non-essential amino-acids and 1% streptomycin (DMEM). The cells were incubated at 37 C in a 5% CO2-enriched, humidified atmosphere. To attain maximum differentiation, the cells were maintained in DMEM.NGF medium for 7 days, with the medium being changed every 2 or 3 days.
Assay for Cell viability. Cells were dissociated by trituration and plated at 1×10^4 cells per well on poly-L-lysine coated 96 well plates containing DMEM.NGF media. Next, the differentiated cells were incubated with the test drug at different concentrations for the specified period of time. Cell viability (cytotoxicity) was determined using the Cell Titer 96 non-radioactive cell proliferation/cytotoxicity assay kit (Promega), which is based on the cellular conversion of a 3-(4,5-dimethylthiazol-2-yl)-2,5-diphenyltetrazolium bromide (MTT) into a formazan product which can be detected spectrophotometrically. After deprivation of cells from NGF and serum, the medium was aspirated and 15 l of dye solution dissolved in DMEM was added. After an additional 4 hr incubation at 37 C, 100 l of solubilization/stop solution was added and the absorbance of solubilized MTT formazan products was measured at 570 nm.
Differentiated PC-12 cells were deprived of neurotrophic factors for 24 hr to promote cytotoxicity. Cell viability was measured by the MTT assay under control conditions, and in cultures in which a choline analog was introduced into the medium at the time of neurotrophic factor withdrawal. […] Choline and its mono-, di-, and tri-ethyl analogs produced a concentration dependent and intermediate level of neuroprotection improving cell viability by up to 40% of baseline.

[2] = target: 7 nicotinic acetylcholine receptor (Rattus norvegicus, UniProt Q05941); assay type: binding; settings: PC-12 cells; FIG. 8
Chain of 7 nicotinic acetylcholine receptor (Q05941 23-502): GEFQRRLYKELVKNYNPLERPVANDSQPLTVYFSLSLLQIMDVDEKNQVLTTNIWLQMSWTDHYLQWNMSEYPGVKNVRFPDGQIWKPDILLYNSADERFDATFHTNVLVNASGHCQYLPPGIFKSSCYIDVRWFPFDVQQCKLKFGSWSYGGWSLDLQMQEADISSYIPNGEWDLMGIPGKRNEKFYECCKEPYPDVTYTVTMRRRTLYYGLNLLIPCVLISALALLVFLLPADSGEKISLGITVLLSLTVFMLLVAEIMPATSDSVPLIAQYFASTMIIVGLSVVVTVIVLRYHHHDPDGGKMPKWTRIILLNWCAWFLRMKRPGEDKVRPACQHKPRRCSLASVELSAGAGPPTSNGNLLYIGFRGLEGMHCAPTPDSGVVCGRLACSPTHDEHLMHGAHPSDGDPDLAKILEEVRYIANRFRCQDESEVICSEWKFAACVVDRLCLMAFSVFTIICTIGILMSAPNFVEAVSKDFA

[3] = test system: differentiated PC-12 cells; test: Cytoprotective effect (% Protection) with exposure 24 hours prior to growth factor withdrawal; assay type: cell-based; settings: exposure 24 hours prior to removal of NGF and serum; FIGS. 11, 13A and B
Description: The above-described differentiated PC-12 cells were exposed to the indicated concentrations (see FIGS. 13A and B) of the FIG. 12 choline analogs 24 hours prior to growth factor withdrawal (removal of nerve growth factor, and changing from serum-containing to serum-free medium). % Protection values were calculated as the ratio of ELISA-based absorbance values for [protected cells−deprived cells (no analog):control (non-deprived) cells−deprived cells]×100. Each data point in FIG. 13 represents data obtained from two separate assays each performed with 5-8 replicates per point.

CC(=O)OCC[N+]1(C)CCCC1 [acetylpyrrolidinecholine]
potency in neuroprotection relative to choline and its ethyl analogs (in words) [1]: more potent

C[N+](C)(CCO)Cc1ccccc1.[Br-] [benzylcholine]
effect on cell viability (in words) ([1]; PC-12 cells deprived of neurotrophic factors for 24 hr, FIG. 5): did not affect cell viability | displacement of cell surface [125I]-bungarotoxin binding (in words) [2]: failed to significantly interact

CN1CCCC1c1cccnc1 (stereo not drawn) [nicotine]
cytoprotective effect, % Protection concentration-effect curve (in words) [3]: biphasic

C[N+]1(CCO)CCCC1 [pyrrolidinecholine]
neuroprotective action after pretreatment with MLA ([1]; MLA (10 nM) pretreatment, FIGS. 9 and 10): blocked | potency in neuroprotection relative to choline and its ethyl analogs (in words) [1]: more potent | neuroprotective action after pretreatment with mecamylamine ([1]; mecamylamine pretreatment, FIGS. 9 and 10): blocked | affinity for the [125I]-bungarotoxin site relative to choline (in words) [2]: slightly more potent affinity | displacement of cell surface [125I]-bungarotoxin binding (in words) [2]: fully displaced
